Laboratory results reported in patent US12186283B2, “Bismuth-thiol compositions and methods of use” (Microbion Corporation, priority 2018, dated 2025).
Where two headings read alike, the source gives them in different places. Marks after values point to notes of the source that are not given here.

Experiments:
M. avium = assay: MIC against CF isolates (Example 5); format: cell-based; conditions: Mycobacterium avium, strain MAC101, M. avium, MAC reference strain, blood isolate from HIV patient
[1] = test system: Staphylococcus aureus (MRSA); assay: Broth microdilution MIC (Example 11); format: cell-based; conditions: MRSA, LevR, CipR, EryR, OxR
[2] = test system: Enterococcus spp. (E. faecalis, E. faecium); assay: Broth microdilution MIC (Example 11); format: cell-based; conditions: enterococci incl. vancomycin-resistant E. faecalis and E. faecium
[3] = test system: S. pneumoniae (pneumococci); assay: Broth microdilution MIC (Example 11); format: cell-based, Streptococcus pneumoniae; conditions: pneumococci incl. multi-drug resistant
Candida spp. = assay: Broth microdilution MIC, yeast (Example 13), group statement and QC; format: cell-based; conditions: C. parapsilosis ATCC 22019, footnote b not given
Candida krusei = assay: Broth microdilution MIC, yeast (Example 13); format: cell-based; conditions: for MIC: Pichia kudriavzevii
S. aureus ATCC 29213 = assay: Broth microdilution MIC, QC organism (Example 13, Table 110); format: cell-based, Staphylococcus aureus
Description: MECs were only reported where observed.

[4] = test system: MUCILAIR™ fully differentiated human airway epithelium; assay: Acute toxicity on […] fully differentiated human airway epithelium (LDH, TEER, morphology); format: cell-based
Experimental: Controlled in vitro evaluation of BisEDT, with respect to potential cytotoxicity on fully differentiated human airway epithelium was carried out. Both solubilized and solid (powder/particulate) forms of BisEDT were evaluated for cytotoxicity by Epithelix, a contract research organization (CRO) specializing in this form of cytotoxicity evaluation utilizing a proprietary, in vitro fully differentiated human airway epithelium test system ([…]™). The […]™ system facilitated evaluation of cytotoxicity through both LDH release (from the culture medium side) and trans-epithelial electrical resistance (TEER) from the apical/air-exposed side as well as pre- and post-exposure microscopic examination for morphological changes (FIG. 13).
The assay system used in this study is Epithelix's proprietary technology sold under the trademark […]™ […]™ is a fully differentiated and ready-to-use 3D model of human airway epithelium, constituted with primary human epithelial cells freshly isolated from nasal, tracheal or bronchial biopsies. […]™ (FIG. 24), is not only morphologically and functionally differentiated, but can also be maintained in a homeostatic state for a long period of time (Huang et al., 2009).
[…]™ is composed of basal cells, ciliated cells and mucus cells. The proportion of these various cell types is preserved compared to what one observes in vivo (Huang et al., 2011). Moreover the epithelia are started from de-differentiated cells. The cells undergo a progressive differentiation with time. After 45 days of culture, the epithelia are fully ciliated, secret mucus and are electrically tight (TEER>200 (2 Ω·cm^2). The activity of the main epithelial ionic channels, such as CFTR, EnaC, Na/K ATPase, is preserved and the epithelia is shown to respond in a regulated and vectorial manner to the pro-inflammatory stimulus, TNF-α (Huang et al., 2011). A large panel of cytokines, chemokines and metalloproteinases has been detected in […]™ (e.g. IL-8, IL-6, GM-CSF, MMP-9, GRO-α).
BisEDT (MB-1-B3) was applied on the apical surface of […]™ during 1, 8, 24 and 48 hours (FIG. 13). The effect of 6 concentrations was studied: 0.001, 0.01, 0.1, 1, 10 and 30 uM. […] 30 μl solution at the selected concentration was applied on the apical surface of […]™. The negative control corresponds to the vehicle solution (0 μM) and untreated cultures. The positive control corresponds to 50 μl to 10% Triton X-100 diluted in a buffered saline solution. The study was run in triplicates.
During the study, inserts were maintained in a CO2 incubator (37° C., 5% CO2, 100% humidity). The following end-points were determined: • Tissue integrity monitoring: Trans-Epithelial Electrical Resistance (TEER) measurement (quantitative) at D0, D1 and D2. • Cytotoxicity monitoring: LDH test (quantitative) at D0, D1 and D2. • Morphology: cellular and tissue integrity examined under contrast microscope at DO, D1 and D2.
(§1) Compound BisEDT was applied on the apical surface of […]™. The effect of 5 concentrations after 1, 8, 24 and 48 hours exposure was studied: 0.033, 0.33, 3.33, 33.3, 333 μg/cm^2. The compound was diluted in Dextran powder at the targeted concentration and compressed in order to obtain a tablet. The study was run in triplicates. During the study, inserts were maintained in a CO2 incubator (37° C., 5% CO2, 100% humidity).
as §1, with “of 1 μg/cm^2” for “of 5”, “was studied.” for “was studied: 0.033, 0.33, 3.33, 33.3, 333 μg/cm^2.”

[5] = Rat single-dose PK: lung tissue BisEDT; conditions: for concentration at 24 h / concentration at 96 h: F344, rat, inhaled, 100 μg/kg
[6] = BisEDT as solid, 1 μg/cm^2, 1 hour exposure
[7] = BisEDT as solid, 0.033 and 0.33 μg/cm^2, all tested time points
[8] = BisEDT in solution 0.001-30 μM apical, 1, 8, 24 and 48 hours

CC(S)C(C)S.[Bi] (stereo not shown) [BisBDT, bismuth-2,3-butanedithiol]
MIC (M. avium): 1 µg/mL
MIC ([1]; S. aureus MMX 5373, CCR): ≤0.06 µg/mL
MIC ([1]; S. aureus MMX 6311, CCR): ≤0.06 µg/mL
MIC ([1]; S. aureus MMX 9204): ≤0.06 µg/mL
MIC ([1]; S. aureus MMX 9205, CCR): ≤0.06 µg/mL
MIC values (range across isolates) [2]: 0.25 to 1 µg/mL
MIC values (range across isolates) [3]: 0.5 to 8 µg/mL
MIC 24 hr, second value of the pair x/y (Candida spp.; 24 hr): 2
MIC 48 hr, second value of the pair x/y (Candida spp.; 48 hr): 4
MIC 24 hr, second value of the pair x/y (Candida krusei; C. krusei ATCC 6258 (QC, Table 110), 24 hr, footnote b not given): 1
MIC 48 hr, second value of the pair x/y (Candida krusei; C. krusei ATCC 6258 (QC, Table 110), 48 hr, footnote b not given): 4
MIC 48 hr, first value of the pair x/y (Candida krusei; C. krusei ATCC 6258 (QC, Table 110), 48 hr, footnote b not given, probably MIC2): 1
MIC (Candida krusei; read-out: MIC2 (50% inhibition)): 0.5 µg/mL
MIC (Candida krusei; read-out: MIC2 (50% inhibition), C. krusei MMX 7125, Susceptible): 0.5 µg/mL
MIC (Candida krusei; read-out: MIC2 (50% inhibition), C. krusei MMX 7155, Susceptible): 0.5 µg/mL
MIC (Candida krusei; read-out: MIC2 (50% inhibition), C. krusei MMX 7563, Susceptible): 0.5 µg/mL
MIC (Candida krusei; read-out: MIC2 (50% inhibition), C. krusei MMX 9878, MICA-I, VORI-I): 0.5 µg/mL
MIC 24 hr (S. aureus ATCC 29213): 1^a

C1C[S][Bi]([S]CC[S][Bi]2[S]CC[S]2)[S]1 [BisEDT, bismuth-1,2-ethanedithiol]
morphology after exposure ([4]; BisEDT as solid in dextran tablet, 3.33 μg/cm^2, 24 and 48 h): Cells were rounded and opaque at the periphery of inserts
morphology after exposure ([4]; BisEDT as solid in dextran tablet, 0.033 and 0.33 μg/cm^2): No morphological modifications were observed
morphology after exposure ([4]; BisEDT as solid in dextran tablet, 33.3 and 333 μg/cm^2, 8, 24 and 48h): Cells were rounded and opaque on the inserts
tissue integrity (TEER) ([4]; BisEDT as solid, 1 μg/cm^2, 8, 24 and 48H exposure): Loss of tissue integrity is observed
cytotoxicity (LDH release) ([4]; BisEDT as solid, 1 μg/cm^2, 8, 24 and 48h): time- and dose-dependent cytotoxicity is observed
morphology after exposure ([4]; BisEDT as solid, 1 μg/cm^2, 1 hour and 8 hour exposure): no important morphological changes were observed
cytotoxicity (LDH release) [4, 6]: No significant effect on LDH release
tissue integrity (TEER) [4, 6]: no significant effect on TEER was observed
morphology after exposure ([4]; BisEDT as solid, 1 μg/cm^2, 24h exposure): the epithelial cells on 2 inserts out of 3 were dead
morphology after exposure ([4]; BisEDT as solid, 1 μg/cm^2, 48 h exposure): the epithelial cells on all 3 inserts were dead
cytotoxicity (LDH release) [4, 7]: No significant effect on LDH release
tissue integrity (TEER) [4, 7]: No significant effect was observed on TEER
cytotoxicity (LDH increase, TEER reduction) ([4]; BisEDT as solid, 1 and 3.33 μg/cm^2, 24 h and 48h exposure): induces cytotoxicity
cytotoxicity (LDH release) ([4]; BisEDT as solid, 3.3, 33.3 and 333 μg/cm^2): time and dose dependent, cytotoxicity is observed
tissue integrity (TEER) ([4]; BisEDT as solid, 3.33, 33.3 and 333 μg/cm^2, 8, 24 and 48H exposure): Loss of tissue integrity is observed
toxicity (LDH, TEER, morphology) ([4]; BisEDT as solid, 33.3, 333 μg/cm^2): strong toxicity was observed
tissue integrity (TEER) ([4]; BisEDT as solid, all tested doses (0.033-333 μg/cm^2), 1 hour exposure): no significant effect on TEER is observed
local toxicity on the airway epithelium (morphology, TEER, LDH) ([4]; BisEDT in liquid solution 0.001-30 μM, 1, 8, 24 and 48 hours): showed no local toxicity
morphology after exposure [4, 8]: No morphology changes were observed
percentage of cytotoxicity (LDH release) [4, 8]: LDH release was not altered
tissue integrity (TEER) [4, 8]: didn't show significant effect on TEER
highest tested concentration, no toxic effects observed ([4]; solubilized BisEDT, all time points up to 48 hours (=20.83 μg/mL)): 30 µM
concentration at 24 h ([5]; lung fluid): 123 µg/mL
concentration at 96 h ([5]; lung fluid): 78 µg/mL
concentration at 24 h ([5]; lung tissue): 4090 ng/g
concentration at 96 h ([5]; lung tissue): 2600 ng/g
half-life of lung levels ([5]; rat, IV dosing): about 24 hour
lung levels relative to inhalation group ([5]; rat, IV dosing 100 μg/kg): < 5%
lung levels ([5]; rat, oral dosing 250 μg/kg): no lung levels
lung tissue half-life ([5]; rat, single inhalation dose (100 μg/kg lung deposited)): about 4 days
Mean BisEDT Conc, lung at sacrifice ([5]; rat, single inhaled dose 47 μg/kg, sac time 30 hr): 4.8 ng/g
Mean BisEDT Conc, lung at sacrifice ([5]; rat, single inhaled dose 124 μg/kg, sac time 30 hr): 5.9 ng/g
Mean BisEDT Conc, lung at sacrifice ([5]; rat, single inhaled dose 400 μg/kg, sac time 30 hr): 12.1 ng/g
Mean BisEDT Conc, lung at sacrifice ([5]; rat, single inhaled dose 3000 μg/kg, sac time 24 hr): 82.3 ng/g
